Values after ≈ are worked out from the molar mass of the structure shown. Active and inactive are the calls of the source. The calls are words filed in the database; no cut-off is given here.
What was measured:
[1] = tested on: Aspergillus niger; test: Antifungal activity against Aspergillus niger NCIM 1196 at 10 ug/disk after 72 hr by disk diffusion method; assay type: functional; conditions: NCIM 1196, 72 h, read-out: DIZ
[2] = tested on: Aspergillus flavus; test: Antifungal activity against Aspergillus flavus NCIM 535 at 10 ug/disk after 72 hr by disk diffusion method; assay type: functional; conditions: NCIM 535, 72 h, read-out: DIZ
[3] = tested on: Candida albicans; test: Antifungal activity against Candida albicans NCIM 3471 at 10 ug/disk after 72 hr by disk diffusion method; assay type: functional; conditions: NCIM 3471, 72 h, read-out: DIZ
[4] = tested on: Penicillium chrysogenum; test: Antifungal activity against Penicillium chrysogenum NCIM 707 at 10 ug/disk after 72 hr by disk diffusion method; assay type: functional; conditions: NCIM 707, 72 h, read-out: DIZ
[5] = tested on: Lipomyces lipofer; test: Antifungal activity against Lipomyces lipofer NCIM 3252 at 10 ug/disk after 72 hr by disk diffusion method; assay type: functional; conditions: NCIM 3252, 72 h, read-out: DIZ
[6] = tested on: Rhodotorula mucilaginosa; test: Antifungal activity against Rhodotorula mucilaginosa NCIM 3174 at 10 ug/disk after 72 hr by disk diffusion method; assay type: functional; conditions: NCIM 3174, 72 h, read-out: DIZ
[7] = tested on: Penicillium chrysogenum; test: Antifungal activity against Penicillium chrysogenum NCIM 707 at 1000 ug/disk after 72 hr by disk diffusion method; assay type: functional; conditions: NCIM 707, 72 h, read-out: DIZ
[8] = tested on: Bacillus subtilis; test: Antibacterial activity against Bacillus subtilis NCIM 2063 after 24 hr by broth dilution assay; assay type: functional; conditions: NCIM 2063, 24 h
[9] = tested on: Lipomyces lipofer; test: Antifungal activity against Lipomyces lipofer NCIM 3252 after 72 hr by broth dilution assay; assay type: functional; conditions: NCIM 3252, 72 h
[10] = tested on: Escherichia coli; test: Antibacterial activity against Escherichia coli NCIM 2065 at 1000 ug/disk after 24 hr by disk diffusion method; assay type: functional; conditions: NCIM 2065, 24 h, read-out: DIZ
[11] = tested on: Klebsiella aerogenes; test: Antibacterial activity against Enterobacter aerogenes NCIM 2239 at 500 ug/disk after 24 hr by disk diffusion method; assay type: functional
[12] = tested on: Lipomyces lipofer; test: Antifungal activity against Lipomyces lipofer NCIM 3252 at 1000 ug/disk after 72 hr by disk diffusion method; assay type: functional; conditions: NCIM 3252, 72 h, read-out: DIZ
[13] = tested on: Pseudomonas aeruginosa; test: Antibacterial activity against Pseudomonas aeruginosa NCIM 2200 at 500 ug/disk after 24 hr by disk diffusion method; assay type: functional; conditions: NCIM 2200, 24 h, read-out: DIZ
[14] = tested on: Pseudomonas aeruginosa; test: Antibacterial activity against Pseudomonas aeruginosa NCIM 2200 at 1000 ug/disk after 24 hr by disk diffusion method; assay type: functional; conditions: NCIM 2200, 24 h, read-out: DIZ
[15] = tested on: Penicillium chrysogenum; test: Antifungal activity against Penicillium chrysogenum NCIM 707 at 500 ug/disk after 72 hr by disk diffusion method; assay type: functional
[16] = tested on: Klebsiella aerogenes; test: Antibacterial activity against Enterobacter aerogenes NCIM 2239 after 24 hr by broth dilution assay; assay type: functional; conditions: NCIM 2239, 24 h
[17] = tested on: Streptomyces albus; test: Antibacterial activity against Streptomyces albus NCIM 2178 at 500 ug/disk after 24 hr by disk diffusion method; assay type: functional, organism-based
[18] = tested on: Lipomyces lipofer; test: Antifungal activity against Lipomyces lipofer NCIM 3252 at 500 ug/disk after 72 hr by disk diffusion method; assay type: functional; conditions: NCIM 3252, 72 h, read-out: DIZ
[19] = tested on: Aspergillus niger; test: Antifungal activity against Aspergillus niger NCIM 1196 after 72 hr by broth dilution assay; assay type: functional; conditions: NCIM 1196, 72 h
[20] = tested on: Bacillus subtilis; test: Antibacterial activity against Bacillus subtilis NCIM 2063 at 500 ug/disk after 24 hr by disk diffusion method; assay type: functional
[21] = tested on: Bacillus cereus; test: Antibacterial activity against Bacillus cereus NCIM 2155 at 500 ug/disk after 24 hr by disk diffusion method; assay type: functional; conditions: NCIM 2155, 24 h, read-out: DIZ
[22] = tested on: Bacillus cereus; test: Antibacterial activity against Bacillus cereus NCIM 2155 after 24 hr by broth dilution assay; assay type: functional; conditions: NCIM 2155, 24 h
[23] = tested on: Bacillus cereus; test: Antibacterial activity against Bacillus cereus NCIM 2155 at 1000 ug/disk after 24 hr by disk diffusion method; assay type: functional; conditions: NCIM 2155, 24 h, read-out: DIZ
[24] = tested on: Candida albicans; test: Antifungal activity against Candida albicans NCIM 3471 at 1000 ug/disk after 72 hr by disk diffusion method; assay type: functional
[25] = tested on: Pseudomonas aeruginosa; test: Antibacterial activity against Pseudomonas aeruginosa NCIM 2200 after 24 hr by broth dilution assay; assay type: functional; conditions: NCIM 2200, 24 h
[26] = tested on: Bacillus subtilis; test: Antibacterial activity against Bacillus subtilis NCIM 2063 at 1000 ug/disk after 24 hr by disk diffusion method; assay type: functional; conditions: NCIM 2063, 24 h, read-out: DIZ
[27] = tested on: Aspergillus flavus; test: Antifungal activity against Aspergillus flavus NCIM 535 after 72 hr by broth dilution assay; assay type: functional; conditions: NCIM 535, 72 h
[28] = tested on: Rhodotorula mucilaginosa; test: Antifungal activity against Rhodotorula mucilaginosa NCIM 3174 at 500 ug/disk after 72 hr by disk diffusion method; assay type: functional
[29] = tested on: Streptomyces albus; test: Antibacterial activity against Streptomyces albus NCIM 2178 at 1000 ug/disk after 24 hr by disk diffusion method; assay type: functional
[30] = tested on: Aspergillus niger; test: Antifungal activity against Aspergillus niger NCIM 1196 at 500 ug/disk after 72 hr by disk diffusion method; assay type: functional
[31] = tested on: Rhodotorula mucilaginosa; test: Antifungal activity against Rhodotorula mucilaginosa NCIM 3174 at 1000 ug/disk after 72 hr by disk diffusion method; assay type: functional; conditions: NCIM 3174, 72 h, read-out: DIZ
[32] = tested on: Escherichia coli; test: Antibacterial activity against Escherichia coli NCIM 2065 at 500 ug/disk after 24 hr by disk diffusion method; assay type: functional; conditions: NCIM 2065, 24 h, read-out: DIZ
[33] = tested on: Escherichia coli; test: Antibacterial activity against Escherichia coli NCIM 2065 after 24 hr by broth dilution assay; assay type: functional; conditions: NCIM 2065, 24 h
[34] = tested on: Candida albicans; test: Antifungal activity against Candida albicans NCIM 3471 at 500 ug/disk after 72 hr by disk diffusion method; assay type: functional
[35] = tested on: Aspergillus flavus; test: Antifungal activity against Aspergillus flavus NCIM 535 at 1000 ug/disk after 72 hr by disk diffusion method; assay type: functional; conditions: NCIM 535, 72 h, read-out: DIZ
[36] = tested on: Klebsiella aerogenes; test: Antibacterial activity against Enterobacter aerogenes NCIM 2239 at 1000 ug/disk after 24 hr by disk diffusion method; assay type: functional; conditions: NCIM 2239, 24 h, read-out: DIZ
[37] = tested on: Aspergillus niger; test: Antifungal activity against Aspergillus niger NCIM 1196 at 1000 ug/disk after 72 hr by disk diffusion method; assay type: functional; conditions: NCIM 1196, 72 h, read-out: DIZ
[38] = tested on: Aspergillus flavus; test: Antifungal activity against Aspergillus flavus NCIM 535 at 500 ug/disk after 72 hr by disk diffusion method; assay type: functional
[39] = tested on: Streptomyces albus; test: Antibacterial activity against Streptomyces albus NCIM 2178 after 24 hr by broth dilution assay; assay type: functional; conditions: NCIM 2178, 24 h
[40] = tested on: Rhodotorula mucilaginosa; test: Antifungal activity against Rhodotorula mucilaginosa NCIM 3174 after 72 hr by broth dilution assay; assay type: functional; conditions: NCIM 3174, 72 h
[41] = tested on: Candida albicans; test: Antifungal activity against Candida albicans NCIM 3471 after 72 hr by broth dilution assay; assay type: functional; conditions: NCIM 3471, 72 h
[42] = tested on: Penicillium chrysogenum; test: Antifungal activity against Penicillium chrysogenum NCIM 707 after 72 hr by broth dilution assay; assay type: functional; conditions: NCIM 707, 72 h

Row | MIC [8] [µg/mL] | MIC [9] [µg/mL] | MIC [16] [µg/mL] | MIC [22] [µg/mL] | MIC [25] [µg/mL] | MIC [27] [µg/mL] | MIC [33] [µg/mL] | Compound | zone of inhibition at 1000 µg/disc [7] [mm] | zone of inhibition at 1000 µg/disc [10] [mm] | zone of inhibition at 1000 µg/disc [12] [mm] | zone of inhibition at 500 µg/disc [13] [mm] | zone of inhibition at 1000 µg/disc [14] [mm] | diameter of the inhibition zone (DIZ) [17] | zone of inhibition at 500 µg/disc [18] [mm] | zone of inhibition at 500 µg/disc [21] [mm] | zone of inhibition at 1000 µg/disc [23] [mm] | zone of inhibition at 1000 µg/disc [26] [mm] | zone of inhibition at 1000 µg/disc [31] [mm] | zone of inhibition at 500 µg/disc [32] [mm] | diameter of the inhibition zone (DIZ) [34] | further results
1 | – | – | – | – | – | – | – | Clc1ccccc1C(c1ccccc1)(c1ccccc1)n1ccnc1 [CLOTRIMAZOLE] | – | – | – | – | – | – | – | – | – | – | – | – | – | zone of inhibition at 10 µg/disc [1]: 16 mm; zone of inhibition at 10 µg/disc [2]: 16 mm; zone of inhibition at 10 µg/disc [3]: 18 mm; zone of inhibition at 10 µg/disc [4]: 21 mm; zone of inhibition at 10 µg/disc [5]: 18 mm; zone of inhibition at 10 µg/disc [6]: 17 mm
2 | 7.8 (≈ 30.1 µM) | 125 (≈ 482 µM) | 31.2 (≈ 120 µM) | 62.5 (≈ 241 µM) | 7.8 (≈ 30.1 µM) | 125 (≈ 482 µM) | 62.5 (≈ 241 µM) | COc1cccc2cc3c(=O)[nH]c(=S)[nH]c3nc12 | 12 | 11 | 14 | 10 | 13 | inactive | 11 | 9 | 12 | 13 | 9 | 9 | inactive | diameter of the inhibition zone (DIZ) [11]: inactive; diameter of the inhibition zone (DIZ) [15]: inactive; MIC [19]: 125 µg/mL (≈ 482 µM); zone of inhibition at 500 µg/disc ([20]; NCIM 2063, 24 h, read-out: DIZ): 10 mm; diameter of the inhibition zone (DIZ) [24]: inactive; diameter of the inhibition zone (DIZ) [28]: inactive; diameter of the inhibition zone (DIZ) [29]: inactive; zone of inhibition at 500 µg/disc ([30]; NCIM 1196, 72 h, read-out: DIZ): 8 mm; zone of inhibition at 1000 µg/disc [35]: 13 mm; zone of inhibition at 1000 µg/disc [36]: 12 mm; zone of inhibition at 1000 µg/disc [37]: 10 mm; diameter of the inhibition zone (DIZ) [38]: inactive
3 | 62.5 (≈ 273 µM) | 125 (≈ 545 µM) | 3.9 (≈ 17 µM) | 31.2 (≈ 136 µM) | 31.2 (≈ 136 µM) | 7.8 (≈ 34 µM) | 31.2 (≈ 136 µM) | O=c1[nH]c(=S)[nH]c2nc3ccccc3cc12 | 12 | 10 | 12 | 10 | 11 | inactive | 9 | 8 | 11 | 10 | 12 | 9 | inactive | zone of inhibition at 500 µg/disc ([11]; NCIM 2239, 24 h, read-out: DIZ): 10 mm; MIC [39]: 62.5 µg/mL (≈ 273 µM); zone of inhibition at 500 µg/disc ([15]; NCIM 707, 72 h, read-out: DIZ): 10 mm; diameter of the inhibition zone (DIZ) [20]: inactive; zone of inhibition at 1000 µg/disc ([24]; NCIM 3471, 72 h, read-out: DIZ): 11 mm; MIC [40]: 15.6 µg/mL (≈ 68 µM); MIC [41]: 125 µg/mL (≈ 545 µM); MIC [42]: 7.8 µg/mL (≈ 34 µM); zone of inhibition at 500 µg/disc ([28]; NCIM 3174, 72 h, read-out: DIZ): 10 mm; zone of inhibition at 1000 µg/disc ([29]; NCIM 2178, 24 h, read-out: DIZ): 12 mm; diameter of the inhibition zone (DIZ) [30]: inactive; zone of inhibition at 1000 µg/disc [35]: 15 mm; zone of inhibition at 1000 µg/disc [36]: 13 mm; zone of inhibition at 1000 µg/disc [37]: 10 mm; zone of inhibition at 500 µg/disc ([38]; NCIM 535, 72 h, read-out: DIZ): 9 mm
